{"source": "patent US8987334B2", "about": "“Cosmetic and pharmaceutical formulations of calixarene molecules” (priority 2008, dated 2015)", "assay": "Transcutaneous passage kinetics of calixarene in Franz cell", "type": "in vitro ADME, pig", "conditions": "released from 1 ml nanoemulsion loaded with 4 mg/g calixarene; 24 hours exposure; occlusive; HPLC LD=17 ng/ml, LQ=52 ng/ml", "data": [{"substance": "1,3,5-O-Me-2,4,6-OCH2COOH-p-tert-butylcalix[6]arene [calixarene]", "values": [{"measurement": "transcutaneous passage of calixarene", "result": "did not pass through the skin"}]}]}
